The test system of data set [1] is nylon fiber ocular surface touching-induced blinking in rats. Kind of data set: Cochet-Bonnet esthesiometry test (anesthetic activity). In kind it is in vivo. Conditions: rat, topical ocular; for anesthesia in Cochet-Bonnet esthesiometry test: concentration range that afforded efficacious analgesia in the formalin blink test. On the procedure:
Cochet-Bonnet Esthesiometry Test
For the Cochet-Bonnet esthesiometry test that measures anesthetic activity, whiskers were trimmed from test animals or vehicle animals. OD eye of animal was dosed with 5 μL of test compound or vehicle. The animal was restrained in a clear plastic cone (DecapiCone®, Alcon Laboratories, Fort Worth, Tex.) which was trimmed as necessary to allow access to the OD eye. Five minutes after application of test compound, a Cochet-Bonnet esthesiometer, with a nylon monofilament diameter of 0.12 mm and length of 40 mm (0.8 g/mm^2), was applied perpendicularly to the central cornea of the OD eye 10 times. This test was performed three times on each animal within 2 minutes. Data were expressed as the mean number of blinks elicited from 10 stimuli.

Data set [2] has as its system formalin-induced blinking in rats. As to the kind of experiment: Formalin blink test (topical ocular analgesia). The data set is classed as in vivo. As to conditions: rat. As to the method:
Formalin was prepared at 0.1% final in 0.9% saline from a stock of 10% neutral buffered formalin (Sigma-Aldrich, St. Louis, Mo.). […] The structure of Compound A is.
All compounds were formulated in a 10% hydroxypropyl-β-cyclodextrin (HPβCD) 1×PBS vehicle. Compounds were prepared as 1% stock solutions in absolute ethanol. An appropriate amount of the stock solution was transferred to a glass vial from which the solvent was evaporated, then the compound was re-suspended in appropriate volumes of vehicle and ball-milled overnight at 4° C. All compounds were tested at 0.01%, 0.1%, 0.3%, and 1% w/v, unless otherwise noted. Alcaine® (Alcon Laboratories, Fort Worth, Tex.) was used as a reference compound.
Rats were dosed with 5 μL, of formalin vehicle (0.9% sterile saline) in OS eye. After a 5-second acclimation period, blinks were counted for one minute. Test compound or vehicle was dosed (5 μL) on OD eye. At 5 minutes after test compound treatment (unless otherwise noted), 0.1% formalin was dosed in the OD eye. Blinks were counted in the same manner as the OS eye.
The efficacy data for these compounds are plotted in FIGS. 1, 3, 4, and 5, with % inhibition of formalin-induced blink rate indicated above the bar for each tested concentration.

Data set [3] deals with rat spinal ligation model of neuropathic pain. As to conditions: orally dosed at 10 mg/kg, comparators at 3-10 times higher doses; cited from earlier work.

These results are taken from patent US9187468B2, “Topical ocular analgesic agents” (Novartis AG, priority 2013, dated 2015).

Take `CC(=O)Nc1cccc(Nc2ncnc(N3CCC(OCc4ccc(OC(F)(F)F)cc4)CC3)n2)c1C` [Compound 1]: the “anesthesia in Cochet-Bonnet esthesiometry test” value in data set [1] was “did not elicit observable anesthesia”. In addition, the “anesthetic effect (touch-induced blinking) compared to vehicle” value in data set [1] (drug concentrations up to 0.3% w/v (0.05-0.3%)) is on record as “did not elicit a statistically significant anesthetic effect”. In data set [2] (FIG. 1 vs FIGS. 3 and 4), the “maximum efficacy as topical ocular analgesic compared to Compounds A and B” value is given as “more efficacious”; the “potency as topical ocular analgesic compared to Compounds A and B” value is reported as “significantly more potent”. In addition, the “% reduction of formalin-induced blink rate vs vehicle” value in data set [2] (drug concentrations ≧0.05% w/v (tested 0.01%-0.3% w/v)) is more than 50%.
In the case of `CCCCCN1C(=O)C2(COc3cc4c(cc32)OCO4)c2ccccc21` (stereo not drawn) [Compound A, 1′-pentyl-6H-spiro[[1,3]dioxolo[4,5-f]benzofuran-7,3′-indolin]-2′-one], the “% reduction of formalin-induced blink rate” value in data set [2] (0.1% w/v dose) was 27%.
On to `NC(=O)c1nc(-c2cccc(-c3ccccc3OC(F)(F)F)c2)cs1` [Compound B, 4-(2′-(trifluoromethoxy)-[1,1′-biphenyl]-3-yl)thiazole-2-carboxamide], for which the “% reduction of formalin-induced blink rate” value in data set [2] (0.01% w/v dose) is reported as “no effect”; in data set [2] (0.1% w/v dose) it was “no effect”; in data set [2] (0.3% w/v dose), approximately 40%; in data set [2] (1% w/v dose), approximately 40%. In addition, in data set [3], the “therapeutic efficacy vs mexiletene, lamotrigene and carbamazepine” value is listed as “significantly more therapeutically efficacious”.
Regarding `Fc1cccc(Cn2ccc3c(OC4CCN(Cc5cscn5)CC4)ncnc32)c1F` [Compound C], the “anesthetic effect (touch-induced blinking)” value in data set [1] (0.1% and 0.2% doses) is “elicited significant anesthesia”. The “anesthesia in Cochet-Bonnet esthesiometry test” value in data set [1] was “profound anesthesia”. Further, the “dose dependence of analgesic efficacy” value in data set [2] (0.01-0.2% w/v) was “dose-related increase in efficacy”. The “maximum efficacy (% inhibition of formalin-induced blink rate)” value in data set [2] (top tested dose of 0.01-0.2% w/v range) was found to be 61%.
